In patent publication US11479539B2, “Small molecule modulators of the BTB domain of Keap1” (MedImmune Limited, priority 2017, dated 2022):

target: Keap1 (Homo sapiens (Human), UniProt Q14145); experiment: HEK293 ARE luciferase assay; assay type: cell-based; conditions: HEK-293 ARE firefly luciferase transiently transfected cells; 18 h incubation; mean of 1 to 20 individual measurements
How it was run: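 Transiently transfected HEK-293 ARE firefly luciferase cells (10,000/well, DMEM with 10% FCS) exposed to compound, 10-point curve from 100 μM top, 0.3% DMSO, 18 h at 37 °C. SteadyGlo luminescence; activity normalised to 30 μM tBHQ (stimulator) and DMSO (neutral), activity threshold 50; means of 1-20 measurements.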

Chain of Keap1 (Q14145 whole entry): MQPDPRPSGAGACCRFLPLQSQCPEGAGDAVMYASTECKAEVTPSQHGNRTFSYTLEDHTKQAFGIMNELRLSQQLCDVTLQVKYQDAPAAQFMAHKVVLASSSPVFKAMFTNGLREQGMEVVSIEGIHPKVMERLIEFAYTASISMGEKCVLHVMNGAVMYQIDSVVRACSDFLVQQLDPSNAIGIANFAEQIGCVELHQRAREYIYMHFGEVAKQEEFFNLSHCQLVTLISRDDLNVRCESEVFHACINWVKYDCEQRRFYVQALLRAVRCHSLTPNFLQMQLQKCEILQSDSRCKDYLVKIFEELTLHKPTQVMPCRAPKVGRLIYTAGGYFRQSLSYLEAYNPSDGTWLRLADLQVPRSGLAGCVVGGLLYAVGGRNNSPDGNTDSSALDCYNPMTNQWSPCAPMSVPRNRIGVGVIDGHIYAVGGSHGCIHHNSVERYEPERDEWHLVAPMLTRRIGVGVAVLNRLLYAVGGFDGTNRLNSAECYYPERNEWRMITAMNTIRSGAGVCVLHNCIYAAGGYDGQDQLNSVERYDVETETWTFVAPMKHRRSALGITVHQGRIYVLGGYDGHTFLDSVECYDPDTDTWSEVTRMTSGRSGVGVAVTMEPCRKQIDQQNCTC

Row | Compound | EC50 [nM]
1 | CC#Cc1cccc(C2(OC)C=C(C#N)C(=O)C(C)(C)C2)n1 (stereo not drawn) [Compound 103, 3-Methoxy-5,5-dimethyl-6-oxo-3-(6-(prop-1-ynyl)pyridin-2-yl)cyclohex-1-enecarbonitrile] | 77
2 | COC1(c2cccc(-c3c(C)noc3C)n2)C=C(C#N)C(=O)C(C)(C)C1 (stereo not drawn) [Compound 105, 3-(6-(3,5-dimethylisoxazol-4-yl)pyridin-2-yl)-3-methoxy-5,5-dimethyl-6-oxocyclohex-1-ene-1-carbonitrile] | 36
3 | COC1(c2cccc(-c3ccnn3C)n2)C=C(C#N)C(=O)C(C)(C)C1 (stereo not drawn) [Compound 106, 3-methoxy-5,5-dimethyl-3-(6-(1-methyl-1H-pyrazol-5-yl)pyridin-2-yl)-6-oxocyclohex-1-ene-1-carbonitrile] | 120
4 | COC1(c2ncccc2Br)CC(C)(C)C(=O)C(C#N)=C1C (stereo not drawn) [Compound 108, 3-(3-bromo-2-pyridyl)-3-methoxy-2,5,5-trimethyl-6-oxo-cyclohexene-1-carbonitrile] | 1900
5 | COC1(c2cccc(C3CC3)n2)C=C(C#N)C(=O)C(C)(C)C1 (stereo not drawn) [Compound 109, 3-(6-cyclopropylpyridin-2-yl)-3-methoxy-5,5-dimethyl-6-oxocyclohex-1-ene-1-carbonitrile] | 185
6 | COC1(c2cccc(N3CCOCC3)n2)C=C(C#N)C(=O)C(C)(C)C1 (stereo not drawn) [Compound 110, 3-methoxy-5,5-dimethyl-3-[6-(morpholin-4-yl)pyridin-2-yl]-6-oxocyclohex-1-ene-1-carbonitrile] | 109
7 | COC1(c2cccc(-c3cnn(C)c3)n2)C=C(C#N)C(=O)C(C)(C)C1 (stereo not drawn) [Compound 111, 3-methoxy-5,5-dimethyl-3-[6-(1-methyl-1H-pyrazol-4-yl)pyridin-2-yl]-6-oxocyclohex-1-ene-1-carbonitrile] | 65
8 | COC1(c2cc(-c3cnn(C)c3)ccn2)C=C(C#N)C(=O)C(C)(C)C1 (stereo not drawn) [Compound 112, 3-methoxy-5,5-dimethyl-3-[4-(1-methyl-1H-pyrazol-4-yl)pyridin-2-yl]-6-oxocyclohex-1-ene-1-carbonitrile] | 371
9 | COC1(c2ccc(Br)cn2)C=C(C#N)C(=O)C(C)(C)C1 (stereo not drawn) [Compound 113, 3-(5-bromopyridin-2-yl)-3-methoxy-5,5-dimethyl-6-oxocyclohex-1-ene-1-carbonitrile] | 343
10 | COC1(c2ncccc2Cl)C=C(C#N)C(=O)C(C)(C)C1 (stereo not drawn) [Compound 114, 3-(3-chloropyridin-2-yl)-3-methoxy-5,5-dimethyl-6-oxocyclohex-1-ene-1-carbonitrile] | 235
11 | COC1(c2ccc(-c3cnn(C)c3)cn2)C=C(C#N)C(=O)C(C)(C)C1 (stereo not drawn) [Compound 115, 3-methoxy-5,5-dimethyl-3-[5-(1-methyl-1H-pyrazol-4-yl)pyridin-2-yl]-6-oxocyclohex-1-ene-1-carbonitrile] | 106
12 | COC1(c2cccc(-c3cccnc3)n2)C=C(C#N)C(=O)C(C)(C)C1 (stereo not drawn) [Compound 116, 3-([2,3′-bipyridin]-6-yl)-3-methoxy-5,5-dimethyl-6-oxocyclohex-1-ene-1-carbonitrile] | 382
13 | COC1(c2cccc(-c3cncnc3)n2)C=C(C#N)C(=O)C(C)(C)C1 (stereo not drawn) [Compound 117, 3-methoxy-5,5-dimethyl-6-oxo-3-[6-(pyrimidin-5-yl)pyridin-2-yl]cyclohex-1-ene-1-carbonitrile] | 34
14 | COC1(c2cccc(-c3ccccc3F)n2)C=C(C#N)C(=O)C(C)(C)C1 (stereo not drawn) [Compound 118, 3-[6-(2-fluorophenyl)pyridin-2-yl)-3-methoxy-5,5-dimethyl-6-oxocyclohex-1-ene-1-carbonitrile] | 355
15 | COc1ccccc1-c1cccc(C2(OC)C=C(C#N)C(=O)C(C)(C)C2)n1 (stereo not drawn) [Compound 119, 3-methoxy-3-[6-(2-methoxyphenyl)pyridin-2-yl]-5,5-dimethyl-6-oxocyclohex-1-ene-1-carbonitrile] | 141
16 | COc1ccccc1-c1cccc(C2(OC)C=C(C#N)C(=O)C(C)(C)C2)n1 (stereo not drawn) [Compound 120, 3-methoxy-3-[6-(2-methoxyphenyl)pyridin-2-yl]-5,5-dimethyl-6-oxocyclohex-1-ene-1-carbonitrile] | 245
17 | COC1(c2ncccc2C(F)(F)F)C=C(C#N)C(=O)C(C)(C)C1 (stereo not drawn) [Compound 122, 3-methoxy-5,5-dimethyl-6-oxo-3-[3-(trifluoromethyl)pyridin-2-yl]cyclohex-1-ene-1-carbonitrile] | 43
18 | COC1(c2ccc(F)cn2)C=C(C#N)C(=O)C(C)(C)C1 (stereo not drawn) [Compound 123, 3-(5-fluoropyridin-2-yl)-3-methoxy-5,5-dimethyl-6-oxocyclohex-1-ene-1-carbonitrile] | 61
19 | COC1(c2ncccc2C(F)F)C=C(C#N)C(=O)C(C)(C)C1 (stereo not drawn) [Compound 124, 3-[3-(difluoromethyl)pyridin-2-yl]-3-methoxy-5,5-dimethyl-6-oxocyclohex-1-ene-1-carbonitrile] | 27
20 | COC1(c2cccc(-c3nccs3)n2)C=C(C#N)C(=O)C(C)(C)C1 (stereo not drawn) [Compound 125, 3-methoxy-5,5-dimethyl-6-oxo-3-[6-(1,3-thiazol-2-yl)pyridin-2-yl]cyclohex-1-ene-1-carbonitrile] | 236

Row | Compound | EC50 [nM]
21 | COC1(c2cccc(-c3cnn(C)c3)n2)C=C(C#N)C(=O)C2(CC2)C1 (stereo not drawn) [Compound 126, 7-methoxy-7-[6-(1-methyl-1H-pyrazol-4-yl)pyridin-2-yl]-4-oxospiro[2.5]oct-5-ene-5-carbonitrile] | 85
22 | COC1(c2cccc(-c3cncnc3)n2)C=C(C#N)C(=O)C2(CC2)C1 (stereo not drawn) [Compound 127, 7-methoxy-4-oxo-7-[6-(pyrimidin-5-yl)pyridin-2-yl]spiro[2.5]oct-5-ene-5-carbonitrile] | 267
23 | COC1(c2cccc(-c3cnc(C)nc3)n2)C=C(C#N)C(=O)C2(CC2)C1 (stereo not drawn) [Compound 128, 7-methoxy-7-[6-(2-methylpyrimidin-5-yl)pyridin-2-yl]-4-oxospiro[2.5]oct-5-ene-5-carbonitrile] | 145
24 | COC1(c2cccc(-c3ccnn3C)n2)C=C(C#N)C(=O)C2(CC2)C1 (stereo not drawn) [Compound 129, 7-methoxy-7-[6-(1-methyl-1H-pyrazol-5-yl)pyridin-2-yl]-4-oxospiro[2.5]oct-5-ene-5-carbonitrile] | 136
25 | COC1(c2cccc(-c3c(C)noc3C)n2)C=C(C#N)C(=O)C2(CC2)C1 (stereo not drawn) [Compound 130, 7-[6-(3,5-dimethyl-1,2-oxazol-4-yl)pyridin-2-yl]-7-methoxy-4-oxospiro[2.5]oct-5-ene-5-carbonitrile] | 153
26 | COC1(c2cncc(C)n2)C=C(C#N)C(=O)C2(CC2)C1 (stereo not drawn) [Compound 131, 7-methoxy-7-(6-methylpyrazin-2-yl)-4-oxospiro[2.5]oct-5-ene-5-carbonitrile] | 464
27 | COC1(c2ncccc2C(F)F)C=C(C#N)C(=O)C2(CC2)C1 (stereo not drawn) [Compound 132, 7-[3-(difluoromethyl)pyridin-2-yl]-7-methoxy-4-oxospiro[2.5]oct-5-ene-5-carbonitrile] | 150
28 | COC1(c2ncccc2C(F)(F)F)C=C(C#N)C(=O)C2(CC2)C1 (stereo not drawn) [Compound 133, 7-methoxy-4-oxo-7-[3-(trifluoromethyl)pyridin-2-yl]spiro[2.5]oct-5-ene-5-carbonitrile] | 76
29 | COC1(c2ccccn2)C=C(C#N)C(=O)C2(CC2)C1 (stereo not drawn) [Compound 135, 7-methoxy-4-oxo-7-(pyridin-2-yl)spiro[2.5]oct-5-ene-5-carbonitrile] | 244
30 | COC1(c2ncc(F)cc2C)C=C(C#N)C(=O)C(C)(C)C1 (stereo not drawn) [Compound 137, 3-(5-fluoro-3-methylpyridin-2-yl)-3-methoxy-5,5-dimethyl-6-oxocyclohex-1-ene-1-carbonitrile] | 47
31 | COC1(c2sccc2C)C=C(C#N)C(=O)C(C)(C)C1 (stereo not drawn) [Compound 139, 3-methoxy-5,5-dimethyl-3-(3-methylthiophen-2-yl)-6-oxocyclohex-1-ene-1-carbonitrile] | 381
32 | COC1(c2nc(C)cs2)C=C(C#N)C(=O)C2(CC2)C1 (stereo not drawn) [Compound 140, 7-methoxy-7-(4-methyl-1,3-thiazol-2-yl)-4-oxospiro[2.5]oct-5-ene-5-carbonitrile] | 140
33 | COC1(c2nc(C(F)(F)F)cs2)C=C(C#N)C(=O)C(C)(C)C1 (stereo not drawn) [Compound 141, 3-methoxy-5,5-dimethyl-6-oxo-3-[4-(trifluoromethyl)-1,3-thiazol-2-yl]cyclohex-1-ene-1-carbonitrile] | 335
34 | COC1(c2nc(C)cs2)C=C(C#N)C(=O)C(C)(C)C1 (stereo not drawn) [Compound 142, 3-methoxy-5,5-dimethyl-3-(4-methyl-1,3-thiazol-2-yl)-6-oxocyclohex-1-ene-1-carbonitrile] | 60
35 | CCOC1(c2ncccc2C(F)(F)F)C=C(C#N)C(=O)C(C)(C)C1 (stereo not drawn) [Compound 143, 3-ethoxy-5,5-dimethyl-6-oxo-3-[3-(trifluoromethyl)pyridin-2-yl]cyclohex-1-ene-1-carbonitrile] | 139
36 | COC1(c2nccs2)C=C(C#N)C(=O)C(C)(C)C1 (stereo not drawn) [Compound 144, 3-methoxy-5,5-dimethyl-6-oxo-3-(1,3-thiazol-2-yl)cyclohex-1-ene-1-carbonitrile] | 389
37 | CCOC1(c2ccc(F)cn2)C=C(C#N)C(=O)C(C)(C)C1 (stereo not drawn) [Compound 145, 3-ethoxy-3-(5-fluoropyridin-2-yl)-5,5-dimethyl-6-oxocyclohex-1-ene-1-carbonitrile] | 65
38 | COC1(c2ncccc2OC(F)(F)F)C=C(C#N)C(=O)C(C)(C)C1 (stereo not drawn) [Compound 147, 3-methoxy-5,5-dimethyl-6-oxo-3-[3-(trifluoromethoxy)pyridin-2-yl]cyclohex-1-ene-1-carbonitrile] | 22
39 | COC1(c2ncccc2C(F)(F)F)C=C(C#N)C(=O)C2(CCCC2)C1 (stereo not drawn) [Compound 148, 9-methoxy-6-oxo-9-[3-(trifluoromethyl)pyridin-2-yl]spiro[4.5]dec-7-ene-7-carbonitrile] | 252
